In the supplement of paper PMC10331698:
± gives the standard deviation of the averaged measurements.

Legend:
Test in all cases: level (log10 ratio to DMSO vehicle control); higher = higher biomarker level / cell amount than vehicle control
Conditions in all cases: in DMSO
[1] = compound: O=C(O)C(F)(F)C(F)(F)C(F)(F)C(F)(F)C(F)(F)C(F)(F)C(F)(F)F [Ammonium perfluorooctanoate]
Experimental: (§1)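 BioMAP Diversity Plus panel of 12 human primary cell co-culture systems (3C, 4H, LPS, SAg, BT, BF4T, BE3C, CASM3C, HDF3CGF, KF3CT, MyoF, Mphg). Compounds were added 1 h before stimulation and left for 24 h (MyoF 48 h; BT 72 h for soluble read-outs or 6 d for IgG). Biomarkers were read by ELISA, cytotoxicity by SRB, PBMC viability and proliferation by Alamar Blue. Each well value was divided by the mean of 8 DMSO control wells on the same plate and log10 transformed; duplicate blinded samples were tested at 4 concentrations.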

[2] = compound: O=S(=O)(O)CCC(F)(F)C(F)(F)C(F)(F)C(F)(F)F [4:2 Fluorotelomer sulfonic acid]
Experimental: as §1

[3] = compound: C=CC(=O)OCCC(F)(F)C(F)(F)C(F)(F)C(F)(F)C(F)(F)C(F)(F)C(F)(F)C(F)(F)F [8:2 Fluorotelomer acrylate]
Experimental: as §1

[4] = compound: O=C(CC(=O)C(F)(F)C(F)(F)C(F)(F)F)c1cccs1 [(Perfluorobutyryl)-2-thenoylmethane]
Experimental: as §1

[5] = compound: O=C(Cl)C(F)(F)C(F)(F)C(F)(F)C(=O)Cl [Hexafluoroglutaryl chloride]
Experimental: as §1

[6] = compound: O=P(O)(O)CCC(F)(F)C(F)(F)C(F)(F)C(F)(F)C(F)(F)C(F)(F)F [2-(Perfluorohexyl)ethylphosphonic acid]
Experimental: as §1

[7] = compound: OCCCCC(F)(F)C(F)(F)C(F)(F)C(F)(F)F [4:4 Fluorotelomer alcohol]
Experimental: as §1

LPS:CCL2/MCP-1
level (log10) ([1]; 6700 nM): -0.0095 ± 0.0035
level (log10) ([1]; 20000 nM): -0.001 ± 0.031
level (log10) ([1]; 60000 nM): 0.0105 ± 0.0092
level (log10) ([2]; 6700 nM): 0.0065 ± 0.028
level (log10) ([2]; 20000 nM): 0.005 ± 0.0042
level (log10) ([2]; 60000 nM): 0.037 ± 0.017
level (log10) ([3]; 6700 nM): -0.0105 ± 0.0021
level (log10) ([3]; 20000 nM): -0.014 ± 0.0071
level (log10) ([3]; 60000 nM): 0.015 ± 0.041
level (log10) ([4]; 6700 nM): -0.0475 ± 0.0035
level (log10) ([4]; 20000 nM): -0.131 ± 0.0057
level (log10) ([5]; 6700 nM): 0.0165 ± 0.005
level (log10) ([5]; 20000 nM): 0.008 ± 0.041
level (log10) ([5]; 60000 nM): 0.0265 ± 0.033
level (log10) ([6]; 6700 nM): -0.016
level (log10) ([6]; 20000 nM): -0.0075 ± 0.005
level (log10) ([6]; 60000 nM): -0.0105 ± 0.019
level (log10) ([7]; 6700 nM): -0.006 ± 0.0071
level (log10) ([7]; 20000 nM): -0.002 ± 0.023
level (log10) ([7]; 60000 nM): -0.006 ± 0.011

BF4T:CXCL8/IL-8
level (log10) ([1]; 6700 nM): 0.0135 ± 0.047
level (log10) ([1]; 20000 nM): 0.043 ± 0.058
level (log10) ([1]; 60000 nM): 0.04 ± 0.088
level (log10) ([2]; 6700 nM): -0.001 ± 0.052
level (log10) ([2]; 20000 nM): 0.0065 ± 0.016
level (log10) ([2]; 60000 nM): 0.001 ± 0.033
level (log10) ([3]; 6700 nM): -0.0395 ± 0.021
level (log10) ([3]; 20000 nM): -0.017 ± 0.028
level (log10) ([3]; 60000 nM): -0.004 ± 0.017
level (log10) ([4]; 6700 nM): 0.0325 ± 0.028
level (log10) ([4]; 20000 nM): 0.114 ± 0.0092
level (log10) ([5]; 6700 nM): 0.045 ± 0.086
level (log10) ([5]; 20000 nM): 0.037 ± 0.072
level (log10) ([5]; 60000 nM): 0.048 ± 0.089
level (log10) ([6]; 6700 nM): -0.0405 ± 0.00071
level (log10) ([6]; 20000 nM): -0.0595 ± 0.0064
level (log10) ([6]; 60000 nM): -0.034 ± 0.0085
level (log10) ([7]; 6700 nM): -0.013 ± 0.021
level (log10) ([7]; 20000 nM): 0.018 ± 0.0057
level (log10) ([7]; 60000 nM): 0.0185 ± 0.005

SAg:CD62E/E-Selectin
level (log10) ([1]; 6700 nM): 0.0045 ± 0.0035
level (log10) ([1]; 20000 nM): 0.02 ± 0.013
level (log10) ([1]; 60000 nM): 0.035 ± 0.0014
level (log10) ([2]; 6700 nM): -0.016 ± 0.0085
level (log10) ([2]; 20000 nM): -0.011 ± 0.0071
level (log10) ([2]; 60000 nM): 0.009 ± 0.0071
level (log10) ([3]; 6700 nM): -0.0125 ± 0.00071
level (log10) ([3]; 20000 nM): 0.0205 ± 0.03
level (log10) ([3]; 60000 nM): -0.009 ± 0.025
level (log10) ([4]; 6700 nM): -0.164 ± 0.0092
level (log10) ([4]; 20000 nM): -0.113 ± 0.02
level (log10) ([5]; 6700 nM): -0.018 ± 0.03
level (log10) ([5]; 20000 nM): -0.024 ± 0.014
level (log10) ([5]; 60000 nM): -0.012 ± 0.0042
level (log10) ([6]; 6700 nM): 0.004 ± 0.0042
level (log10) ([6]; 20000 nM): 0.0015 ± 0.0021
level (log10) ([6]; 60000 nM): 0.0635 ± 0.021
level (log10) ([7]; 6700 nM): -0.001 ± 0.0014
level (log10) ([7]; 20000 nM): -0.01 ± 0.0071
level (log10) ([7]; 60000 nM): -0.014 ± 0.028

BT:sIL-6
level (log10) ([1]; 6700 nM): -0.0485 ± 0.0021
level (log10) ([1]; 20000 nM): -0.0025 ± 0.037
level (log10) ([1]; 60000 nM): -0.034 ± 0.085
level (log10) ([2]; 6700 nM): 0.047 ± 0.041
level (log10) ([2]; 20000 nM): -0.0105 ± 0.011
level (log10) ([2]; 60000 nM): -0.052 ± 0.13
level (log10) ([3]; 6700 nM): 0.0525 ± 0.019
level (log10) ([3]; 20000 nM): 0.029 ± 0.0028
level (log10) ([3]; 60000 nM): 0.0215 ± 0.039
level (log10) ([4]; 6700 nM): -0.009 ± 0.024
level (log10) ([4]; 20000 nM): -0.265 ± 0.067
level (log10) ([5]; 6700 nM): -0.0085 ± 0.042
level (log10) ([5]; 20000 nM): 0.008 ± 0.055
level (log10) ([5]; 60000 nM): -0.033 ± 0.023
level (log10) ([6]; 6700 nM): 0.0645 ± 0.013
level (log10) ([6]; 20000 nM): -0.007 ± 0.0042
level (log10) ([6]; 60000 nM): 0.0015 ± 0.025
level (log10) ([7]; 6700 nM): 0.036 ± 0.033
level (log10) ([7]; 20000 nM): -0.0255 ± 0.005
level (log10) ([7]; 60000 nM): -0.069 ± 0.09

SAg:CXCL8/IL-8
level (log10) ([1]; 6700 nM): -0.0325 ± 0.026
level (log10) ([1]; 20000 nM): 0.007 ± 0.013
level (log10) ([1]; 60000 nM): 0.127 ± 0.16
level (log10) ([2]; 6700 nM): -0.048 ± 0.093
level (log10) ([2]; 20000 nM): -0.007 ± 0.052
level (log10) ([2]; 60000 nM): 0.034 ± 0.042
level (log10) ([3]; 6700 nM): -0.021 ± 0.0099
level (log10) ([3]; 20000 nM): -0.029 ± 0.0099
level (log10) ([3]; 60000 nM): -0.0185 ± 0.043
level (log10) ([4]; 6700 nM): -0.169 ± 0.058
level (log10) ([4]; 20000 nM): -0.177 ± 0.0085
level (log10) ([5]; 6700 nM): -0.024 ± 0.0071
level (log10) ([5]; 20000 nM): -0.029 ± 0.042
level (log10) ([5]; 60000 nM): 0.0065 ± 0.005
level (log10) ([6]; 6700 nM): -0.003 ± 0.038
level (log10) ([6]; 20000 nM): 0.015 ± 0.023
level (log10) ([6]; 60000 nM): 0.143 ± 0.0021
level (log10) ([7]; 6700 nM): 0.0075 ± 0.0021
level (log10) ([7]; 20000 nM): 0.002 ± 0.0057
level (log10) ([7]; 60000 nM): -0.0015 ± 0.025

LPS:CD141/Thrombomodulin
level (log10) ([1]; 6700 nM): 0.0135 ± 0.025
level (log10) ([1]; 20000 nM): 0.0105 ± 0.013
level (log10) ([1]; 60000 nM): -0.004 ± 0.016
level (log10) ([2]; 6700 nM): 0.0215 ± 0.039
level (log10) ([2]; 20000 nM): 0.0345 ± 0.044
level (log10) ([2]; 60000 nM): 0.0755 ± 0.032
level (log10) ([3]; 6700 nM): -0.044 ± 0.04
level (log10) ([3]; 20000 nM): -0.085 ± 0.016
level (log10) ([3]; 60000 nM): -0.0925 ± 0.03
level (log10) ([4]; 6700 nM): -0.009 ± 0.042
level (log10) ([4]; 20000 nM): -0.0665 ± 0.077
level (log10) ([5]; 6700 nM): -0.0035 ± 0.066
level (log10) ([5]; 20000 nM): -0.017 ± 0.028
level (log10) ([5]; 60000 nM): -0.017 ± 0.021
level (log10) ([6]; 6700 nM): -0.004 ± 0.11
level (log10) ([6]; 20000 nM): -0.0055 ± 0.11
level (log10) ([6]; 60000 nM): 0.0315 ± 0.032
level (log10) ([7]; 6700 nM): 0.0135 ± 0.032
level (log10) ([7]; 20000 nM): 0.0215 ± 0.0078
level (log10) ([7]; 60000 nM): 0.007 ± 0.0085
